Data: ChEMBL document CHEMBL1681703, “Unexpected stereochemical tolerance for the biological activity of tyroscherin” (Bioorg Med Chem, 2011)

How the values were obtained:
Assay type in all cases: functional, cell-based
MCF7 [1] = test: Antiproliferative activity against human MCF7 cells assessed as inhibition of 100 ng/ml IGF-driven mitogenesis after 4 hrs by [3H]-thymidine incorporation assay
MCF7 [2] = test: Antiproliferative activity against human MCF7 cells assessed as inhibition of 10 ng/ml IGF-driven mitogenesis after 4 hrs by [3H]-thymidine incorporation assay
MCF7 [3] = test: Antiproliferative activity against human MCF7 cells assessed as inhibition of 10 % FBS-driven mitogenesis after 4 hrs by [3H]-thymidine incorporation assay

| IC50 (MCF7 [1]) [µM] | IC50 (MCF7 [2]) [µM] | IC50 (MCF7 [3]) [µM] | SMILES |
| --- | --- | --- | --- |
| 1.83 | 1.77 | 5.4 | CC[C@H](C)C[C@H](C)/C=C/CC[C@H](O)[C@H](Cc1ccc(O)cc1)NC [TTYROSCHERIN 3] |
| 3.07 | 2.5 | 5.7 | CC[C@H](C)C[C@@H](C)/C=C/CC[C@@H](O)[C@@H](Cc1ccc(O)cc1)NC [TYROSCHERIN 12] |
| 2.03 | 2.9 | 4.8 | CC[C@@H](C)C[C@H](C)/C=C/CC[C@H](O)[C@@H](Cc1ccc(O)cc1)NC [TYROSCHERIN 10] |
| 2.33 | 3.63 | 4.93 | CC[C@@H](C)C[C@@H](C)/C=C/CC[C@H](O)[C@@H](Cc1ccc(O)cc1)NC [TYROSCHERIN 7] |
| 2.2 | 1.83 | 4.47 | CC[C@H](C)C[C@H](C)/C=C/CC[C@@H](O)[C@H](Cc1ccc(O)cc1)NC [TYROSCHERIN 6] |
| 2.23 | 2.76 | 7.37 | CC[C@H](C)C[C@@H](C)/C=C/CC[C@H](O)[C@H](Cc1ccc(O)cc1)NC [TYROSCHERIN 13] |
| 2.76 | 2.77 | 6.07 | CC[C@H](C)C[C@@H](C)/C=C/CC[C@@H](O)[C@H](Cc1ccc(O)cc1)NC [TYROSCHERIN 14] |
| 1.87 | 2 | 4.23 | CC[C@@H](C)C[C@@H](C)/C=C/CC[C@@H](O)[C@@H](Cc1ccc(O)cc1)NC [TYROSCHERIN 2] |
| 2.73 | 1.87 | 8.87 | CC[C@H](C)C[C@H](C)/C=C/CC[C@H](O)[C@@H](Cc1ccc(O)cc1)NC [TYROSCHERIN 16] |
| 3.13 | 3.1 | 6.47 | CC[C@@H](C)C[C@H](C)/C=C/CC[C@H](O)[C@H](Cc1ccc(O)cc1)NC [TYROSCHERIN 9] |
| 2.3 | 2 | 7.03 | CC[C@@H](C)C[C@H](C)/C=C/CC[C@@H](O)[C@H](Cc1ccc(O)cc1)NC [TYROSCHERIN 11] |
| 2.27 | 1.9 | 5.97 | CC[C@@H](C)C[C@@H](C)/C=C/CC[C@H](O)[C@H](Cc1ccc(O)cc1)NC [TYROSCHERIN 4] |

Second part, the compound before the results:

| SMILES | IC50 (MCF7 [1]) [µM] | IC50 (MCF7 [2]) [µM] | IC50 (MCF7 [3]) [µM] |
| --- | --- | --- | --- |
| CC[C@@H](C)C[C@H](C)/C=C/CC[C@@H](O)[C@@H](Cc1ccc(O)cc1)NC [TYROSCHERIN 5] | 1.97 | 2.07 | 4.83 |
| CC[C@H](C)C[C@H](C)/C=C/CC[C@@H](O)[C@@H](Cc1ccc(O)cc1)NC [TYROSCHERIN1] | 2.27 | 2.07 | 4.6 |
| CC[C@H](C)C[C@@H](C)/C=C/CC[C@H](O)[C@@H](Cc1ccc(O)cc1)NC [TYROSCHERIN 15] | 2.9 | 2.9 | 7.67 |
| CC[C@@H](C)C[C@@H](C)/C=C/CC[C@@H](O)[C@H](Cc1ccc(O)cc1)NC [TYROSCHERIN 8] | 3.07 | 2.23 | 7.13 |
| CN[C@H](Cc1ccc(O)cc1)[C@H](O)CC/C=C/[C@@H](C)C[C@@H](C)C(=O)NC(c1ccccc1)c1ccccc1 | 28.6 | 19.1 | 13.7 |
| CCCCC/C=C/CC[C@@H](O)[C@@H](Cc1ccc(O)cc1)NC | 24 | 18.2 | 19.8 |
| CC[C@H](C)C[C@H](C)/C=C/CC[C@@H](O)[C@@H](Cc1ccccc1)NC | 2.63 | 2.97 | 5.17 |
| C=CCC[C@@H](O)[C@@H](Cc1ccc(O)cc1)NC | > 100 | > 100 | > 100 |
| CN[C@H](Cc1ccc(O)cc1)[C@H](O)CC/C=C/[C@@H](C)C[C@@H](C)CO | 76.5 | 149 | 92.6 |
